Laboratory results taken from ChEMBL document CHEMBL5244201, “Non-covalent albumin-binding ligands for extending the circulating half-life of small biotherapeutics” (Medchemcomm, 2019).
Values belong to the compound of their own block, whether it stands above or below them.

Key:
Albumin [1] = target: T1, Albumin (Homo sapiens, UniProt P02768); test: Binding affinity to human albumin
Albumin [2] = target: T2, Albumin (Mus musculus, UniProt P07724); test: Binding affinity to mouse albumin
[3] = Terminal half life in iv dosed mouse; type: ADME, organism-based; conditions: in vivo, read-out: beta t1/2 (converted)
Albumin [4] = target: T1, Albumin; test: Binding affinity to human serum albumin by fluorescence polarization assay
Albumin [5] = target: T1, Albumin; test: Binding affinity to human albumin assessed as dissociation constant by fluorescence polarization assay
Albumin [6] = target: T2, Albumin; test: Binding affinity to mouse albumin assessed as dissociation constant by fluorescence polarization assay
Albumin [7] = target: T1, Albumin; test: Binding affinity to human albumin assessed as dissociation constant by ITC method
Albumin [8] = target: T1, Albumin; test: Binding affinity to human albumin assessed as dissociation constant
Macaca fascicularis = species: Macaca fascicularis; test: Terminal half life in monkey; conditions: cynomolgus monkey, in vivo; read-out: beta t1/2 (converted)

T1 sequence (P02768 whole entry): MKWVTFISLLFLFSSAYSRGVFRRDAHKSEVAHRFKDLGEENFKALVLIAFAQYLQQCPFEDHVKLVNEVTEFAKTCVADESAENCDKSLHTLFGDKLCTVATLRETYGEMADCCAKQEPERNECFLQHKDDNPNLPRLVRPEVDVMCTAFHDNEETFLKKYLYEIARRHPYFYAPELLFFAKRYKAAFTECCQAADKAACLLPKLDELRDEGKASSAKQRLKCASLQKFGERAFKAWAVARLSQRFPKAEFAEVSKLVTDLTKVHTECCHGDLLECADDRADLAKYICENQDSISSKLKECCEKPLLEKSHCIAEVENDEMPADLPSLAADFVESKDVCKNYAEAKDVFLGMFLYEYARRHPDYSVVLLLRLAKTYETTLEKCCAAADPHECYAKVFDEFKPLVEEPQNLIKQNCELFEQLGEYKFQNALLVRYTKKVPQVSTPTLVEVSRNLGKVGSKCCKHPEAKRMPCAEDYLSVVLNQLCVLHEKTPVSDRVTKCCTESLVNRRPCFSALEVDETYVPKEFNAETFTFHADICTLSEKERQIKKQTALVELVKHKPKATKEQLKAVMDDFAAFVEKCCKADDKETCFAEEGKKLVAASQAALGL
T2 sequence (P07724 whole entry): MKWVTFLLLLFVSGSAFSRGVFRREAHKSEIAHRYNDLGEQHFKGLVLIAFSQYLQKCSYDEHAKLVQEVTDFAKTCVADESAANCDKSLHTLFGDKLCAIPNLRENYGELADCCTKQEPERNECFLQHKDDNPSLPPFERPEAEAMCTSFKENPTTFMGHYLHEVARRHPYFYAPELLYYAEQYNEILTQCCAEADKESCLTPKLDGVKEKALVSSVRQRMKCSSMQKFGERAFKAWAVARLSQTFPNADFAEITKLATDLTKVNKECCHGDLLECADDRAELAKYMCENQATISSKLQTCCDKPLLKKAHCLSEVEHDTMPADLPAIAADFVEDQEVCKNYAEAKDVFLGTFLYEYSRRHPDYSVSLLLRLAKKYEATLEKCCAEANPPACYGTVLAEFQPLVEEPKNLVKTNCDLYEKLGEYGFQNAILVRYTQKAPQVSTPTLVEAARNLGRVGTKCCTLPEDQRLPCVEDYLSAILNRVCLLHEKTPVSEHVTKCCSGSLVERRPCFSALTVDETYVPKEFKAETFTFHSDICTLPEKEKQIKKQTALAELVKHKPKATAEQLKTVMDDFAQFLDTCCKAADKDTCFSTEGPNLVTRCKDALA

- Kd (Albumin [1]): 3200 nM
- Kd (Albumin [2]): 3600 nM
- half-life [3]: 16.6 h
Compound: O=C(CCCc1ccc(I)cc1)NCCCCC(NC(=O)c1ccc2c(c1)C(=O)OC21c2ccc(O)cc2Oc2cc(O)ccc21)C(=O)O (stereo not given)

- Kd (Albumin [4]): 6600 nM
Compound: Cc1cccc(OCc2cn(CCCC[C@@H]3NC(=O)CNC(=O)[C@@H]4CCCN4C(=O)[C@H](CCCCNC(=O)c4cnc(N5CCOCC5)c(N)c4)NC(=O)[C@H](CCCCNC(=S)Nc4ccc5c(c4)C(=O)OC54c5ccc(O)cc5Oc5cc(O)ccc54)NC(=O)[C@H](C)NC(=O)CNC(=O)[C@@H]4CCCN4C(=O)[C@H](CCCCNC(=O)c4cccc(Oc5ccccc5)c4)NC(=O)[C@H](C)NC3=O)nn2)n1

- half-life [3]: 8.25 h
- Kd (Albumin [5]): 108 nM
- Kd (Albumin [6]): 118 nM
- Kd (Albumin [7]): 330 nM
Compound: O=C(CCCc1ccc(I)cc1)NCCCC[C@@H](NC(=O)c1ccc(-c2c3ccc(=O)cc-3oc3cc(O)ccc23)c(C(=O)O)c1)C(=O)O

- Kd (Albumin [8]): 15 nM
- half-life (Macaca fascicularis): 31.2 h
Compound: Ac-WWEQDRDWDFDVFGGGTP-NH2
